Values of other authors, collected in patent publication US9492446B2, “Manufacturing method of solid dispersion containing itraconazole” (CTC BIO, Inc., priority 2004, dated 2016).

What was measured:
[1] = AIDS patients, higher pH in stomach; oral

## CCC(C)n1ncn(-c2ccc(N3CCN(c4ccc(OCC5COC(Cn6cncn6)(c6ccc(Cl)cc6Cl)O5)cc4)CC3)cc2)c1=O (centres unmarked) [Itraconazole]
other
  water-solubility: less than 1 ug/ml
[1]
  absorption of itraconazole relative to that of normal people: no more than 50%
